The text below walks through data of patent publication US9278982B2, “Targeting human thymidylate kinase induces DNA repair toxicity in malignant tumor cells” (NATIONAL YANG-MING UNIVERSITY, priority 2010, dated 2016).

Molecules are shown by their SMILES.

Assay [1] deals with T1, thymidine kinase 1 (TK1) (Homo sapiens, UniProt P04183).
T1 construct: made in house; host or cells: E. coli JM109 (pGEX-3X-hTK1)
Put plainly: Luciferase-coupled TK assay. The class given is biochemical. To be noted: GST-hTK1 protein (5 μg), 10 min preincubation. How it is done:
FIG. 12. Identification of a novel hTMPK inhibitor. (A) A screen of TMPK inhibitor by luciferase-coupled assay. (B) The chemical structures of YMU1 (compound 21) and related molecules. (C) Effect of YMU1 and derivative compounds on hTMPK inhibition using purified hTMPK protein (0.5 μg) with 10 min preincubation prior to reaction using luciferase-coupled TMPK analysis. (D) Effect of YMU1 on activity of purified TMPK (0.5 μg) and GST-hTK1 protein (5 μg) with 10 min preincubation prior to reaction. Data represent mean±s.d. (n=4) (E) Molecular models of the TMPK-YMU1 complex. Left panel: TMPK/ATP/Mg+2; right panel: TMPK/YMU1. The TMPK is represented in surface electrostatic potential (upper) and structural ribbon (lower). ATP and YMU1 are shown in green and blue stick, respectively, with colored atom (O, red; S, yellow; P, orange). […]
The TK reaction was started by adding purified hTMPK in 50 μl of TK assay buffer (50 mM Tris-HCl, pH 7.5, 1 mM CHAPS, 3 mg/ml BSA, 2.5 mM MgCl2, 50 μM ATP and 100 μM thymidine) in 96 wells plate at 25° C. for 10 min and terminated by adding 200 μl of thymidine (1.25 mM), followed by transferring 10 μl of reaction solution to a white 96-wellplate containing 90 μl of luciferase assay buffer (50 mM Glycine, 0.5 mM EDTA and 5 mM EDTA, pH 7.0, 0.1 μg of luciferase, 50 μM luciferin and 0.1% BSA). The luminescence was measured with a luminescence counter (Packard).

Assay [2] deals with HMEC. Put plainly: Doxorubicin sensitization, MTS viability assay. The class given is cell-based, human. To be noted: doxorubicin sensitivity, YMU1 vs vehicle. As for the experimental part: (§1) FIG. 16. In vitro and in vivo effect of YMU1 on doxorubicin sensitization. (A) A panel of cell lines were pre-treated with vehicle, YMU1 (compound 21), D6 (ethyl 4-(2-chloroacetyl)piperazine-1-carboxylate) or D7 (compound 28) for 3 days and were exposed to different concentration of doxorubicin for 4 h. […] The enhancement (fold) of doxorubicin sensitivity in each cell line was calculated. Data represent mean±s.d., n=3; each experiment was quadruplex. Inset indicates the IC50 value of doxorubicin in various cell lines. […] Following overnight culture, cells were refreshed with growth medium. After 14 days of culture, colonies were fixed, stained by crystal violet and counted. (C) HCT-116 p53^−/− cells were subcutaneously implanted in the right flank of Balb/c nude mice (each experimental group n=8). Arrow indicated the time of stopping drug treatment. The tumor volume was estimated as described in Methods of the Invention section. (D) After 2 weeks recovered from treatment, mice were sacrificed for tumor weight measurement. Data represent mean±s.e.m; **, P<0.01 by a two-tailed Student's t-test. (E) Ki 67 proliferation marker staining of tumor shown in left panel. Scale bar, 50 μm. (F) Model of doxorubicin sensitization by YMU1 in malignant cancer cells. Both R2/R1 and TMPK are recruited to the site of doxorubicin-induced double-strand breaks, where dATP, dGTP, dCTP, dTTP and dUTP are site-specific synthesized. Inhibition of TMPK decreases dTTP formation at DNA damage sites, causing futile DNA repair due to dUTP incorporation.
(§2) Next, various human cancer cell lines were treated with YMU1, D6 or D7 for 72 h to test the potential of TMPK inhibitor in doxorubicin sensitization. After exposure to different concentration of doxorubicin for 4 h, cells were refreshed for viability analysis after 2 days and the IC50 value for doxorubicin in each of the cell lines was determined (FIG. 16A and Table 2).
(§3) Cells plated into a 96-well plate (10^3 cells/well) were treated and cell viability was measured by MTS assay (Promega) (Cory et al., 1991). An annexin V-fluorescein isothiocyanate (FITC) apoptosis kit (Calbiochem) was used to detect apoptosis. The cell cycle analysis was performed by staining cells with propidium iodide (PI) for fluorescence-activated cell sorter (FACS) analysis with CellQuest software.
In general terms: Formazan colour is commonly taken as a measure of viable cells.

In assay [3] the test system is Capan1. The assay can be described thus: Doxorubicin sensitization, MTS viability assay. The format is cell-based, human. The following applies: doxorubicin sensitivity, YMU1 vs vehicle. How it is done: as §1, §2, §3
Assay [4] relates to H184B5F5/M10. Put plainly: Doxorubicin sensitization, MTS viability assay. The format is cell-based, human. To be noted: doxorubicin sensitivity, YMU1 vs vehicle. How it is done: as §1, §2, §3
In assay [5] the test system is HT-29. Put plainly: Doxorubicin sensitization, MTS viability assay. The class given is cell-based, human. The following applies: doxorubicin sensitivity, YMU1 vs vehicle. How it is done:
as §1, §2, §3

The test system of assay [6] is HCC1037. The assay can be described thus: Doxorubicin sensitization, MTS viability assay. The class given is cell-based, human. To be noted: doxorubicin sensitivity, YMU1 vs vehicle. How it is done: as §1, §2, §3
The test system of assay [7] is SaoS2. The assay can be described thus: Doxorubicin sensitization, MTS viability assay. The following applies: doxorubicin sensitivity, YMU1 vs vehicle. The format is cell-based, human. How it is done:
as §1, §2, §3

The test system of assay [8] is CL-1-0. The assay can be described thus: Doxorubicin sensitization, MTS viability assay. The class given is cell-based, human. To be noted: doxorubicin sensitivity, YMU1 vs vehicle. As for the experimental part:
as §1, §2, §3

Assay [9] has as its system IMR-90. The assay can be described thus: Doxorubicin sensitization, MTS viability assay. To be noted: doxorubicin sensitivity, YMU1 vs vehicle. The format is cell-based, human. As for the experimental part:
as §1, §2, §3

For assay [10], the system named is H1299. Put plainly: Doxorubicin sensitization, MTS viability assay. The class given is cell-based, human. To be noted: doxorubicin sensitivity, YMU1 vs vehicle. As for the experimental part:
as §1, §2, §3

In assay [11] the test system is MCF-10A. Put plainly: Doxorubicin sensitization, MTS viability assay. The format is cell-based, human. To be noted: doxorubicin sensitivity, YMU1 vs vehicle. How it is done: as §1, §2, §3
Assay [12] has as its system MDA-MB231. The assay can be described thus: Doxorubicin sensitization, MTS viability assay. The format is cell-based, human. As for the experimental part: as §1, §2, §3
The test system of assay [13] is HCT-116p53−/−. Put plainly: Doxorubicin sensitization, MTS viability assay. The class given is cell-based, human. The following applies: doxorubicin sensitivity, YMU1 vs vehicle. How it is done:
as §1, §2, §3

Assay [14] has as its system HREC. The assay can be described thus: Doxorubicin sensitization, MTS viability assay. The format is cell-based, human. To be noted: doxorubicin sensitivity, YMU1 vs vehicle. How it is done: as §1, §2, §3
In assay [15] the test system is MDA-MB468. The assay can be described thus: Doxorubicin sensitization, MTS viability assay. The format is cell-based, human. The following applies: doxorubicin sensitivity, YMU1 vs vehicle. How it is done: as §1, §2, §3
For assay [16], the system named is U2OS. The assay can be described thus: Doxorubicin sensitization, MTS viability assay. The following applies: doxorubicin sensitivity, YMU1 vs vehicle. The class given is cell-based, human. How it is done: as §1, §2, §3

T1 sequence (P04183 whole entry): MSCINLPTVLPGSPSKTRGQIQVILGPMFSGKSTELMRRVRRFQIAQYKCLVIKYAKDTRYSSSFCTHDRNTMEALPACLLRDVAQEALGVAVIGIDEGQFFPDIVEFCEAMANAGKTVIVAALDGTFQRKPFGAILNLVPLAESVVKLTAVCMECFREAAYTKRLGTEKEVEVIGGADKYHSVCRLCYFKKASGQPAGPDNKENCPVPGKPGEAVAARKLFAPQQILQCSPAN

In the case of `CCOC(=O)N1CCN(C(=O)Cn2sc3nc(C)cc(C)c3c2=O)CC1` [compound 21, Ethyl 4-(2-(4,6-dimethyl-3-oxoisothiazolo[5,4-b]pyridin-2(3H)-yl)acetyl) piperazine-1-carboxylate], in [1], the “inhibitory effect on activity of purified thymidine kinase 1 (TK1)” value was “without inhibitory effect”. Further, the Enhancement fold in assay [2] amounted to 1.0 fold; in assay [3], 1.0 fold; in assay [4], 1.7 fold; in assay [5], 3.4 fold; in assay [6] it was 0.8 fold; in assay [7] it was 35.1 fold. Also, the Enhancement fold in assay [8] was found to be 6.0 fold; in assay [9], 1.0 fold; in assay [10] it was 12.2 fold; in [11] it was 1.2 fold; in assay [12] (MDA-MB231, doxorubicin sensitivity, YMU1 vs vehicle) it was 31.0 fold; in assay [13], 6.8 fold. Moreover, the Enhancement fold was 1.0 fold in assay [14], 27.8 fold in assay [15] and 4.0 fold in assay [16]. Further, the “enhancement on doxorubicin sensitization” value in assay [12] (MDA-MB231 cell treatment, compound at 2 μM) is on record as 30 fold.
